One experiment deals with OVTOKO cells. In words: Cell growth inhibitory effect on human ovarian cancer cell line (cell counting kit 8, 6 days). The conditions noted are these: 144 h, 6 days incubation. Type of experiment: cell-based. From the text:
(§1) NCI-H226 cells, a human mesothelioma cell line (ATCC, CRL-5826), NCI-H322 cells, a human lung cancer cell line (the European Collection of Authenticated Cell Cultures, 95111734), OUTOKO cells, a human ovarian cancer cell line (JCRB cell bank, KRB1048) and […] were each subcultured by keeping the cell density under 80% in a RPMI1640 culture medium with 10% fetal bovine serum (FBS). NCI-H226 cells, NCI-H322 cells and SSP-25 cells were each suspended in the RPMI1640 culture medium mentioned above, and plated to a 96-well flat-bottom plate at 500 cells/well in each well, and incubated at 37° C. in an incubator with 5% CO2 for one day. After the incubation, the evaluation of cell growth inhibitory activity was started. OVTOKO cells were suspended in the RPMI1640 culture medium mentioned above, and plated to a 96-well flat-bottom plate at 250 cells/well in each well, and incubated it at 37° C. in an incubator with 5% CO2 for one day. After the incubation, the evaluation of the cell growth inhibitory activity was started. The next day, a test compound was serially diluted to 5 times of its final concentration in the RPM11640 culture medium mentioned above, and the diluted solution was added to each well. In this case, the final concentration of DMSO in each well was adjusted to 0.1%. After the test compound was added, cells were incubated at 37° C. in an incubator with 5% CO2 for 6 days. At the addition of the test compound and 6 days after the addition, the cell counting measurement was performed using a cell counting kit 8 (made by DOJINDO) according to a protocol equivalent to DOJINDO's recommendation. A reagent contained in the kit was added to each plate and color reaction was performed for 2 or 3 hours at 37° C. in an incubator with 5% CO2. After the reaction, an absorbance at wavelength of 450 nm was measured using a microplate reader. A growth inhibition rate was calculated according to the following formula, from which the concentration of a test compound at which cell growth was inhibited by 50% (GI50 value) was determined.
`[H]/C=C/C(=O)NCc1cc(Oc2ccnc(C(F)(F)F)c2)nc2ccccc12` [Compound 151, N-{(2-[{2-(Trifluoromethyl)pyridin-4-yl}oxy]quinolin-4-yl)methyl}acrylamide]: the GI50 was no more than 3000 nM.

Molecule `C=CC(=O)NC1COc2c(cccc2Oc2cnc(C(F)(F)F)nc2)C1` (stereo not drawn) [Compound 155, N-(8-[{2-(Trifluoromethyl)pyrimidin-5-yl}oxy]chroman-3-yl)acrylamide] registered a GI50 of no more than 3000 nM.

With `C=CC(=O)NC1COc2c(cccc2Oc2cnc(C(F)(F)F)cn2)C1` (stereo not drawn) [Compound 157, N-(8-[{5-(Trifluoromethyl)pyrazin-2-yl}oxy]chroman-3-yl)acrylamide], the GI50 is no more than 3000 nM.

`C=CC(=O)NC1COc2c(cc(C(F)(F)F)cc2Oc2ccc(C(F)(F)F)nc2)C1` (stereo not drawn) [Compound 162, N-{6-(Trifluoromethyl)-8-[{6-(trifluoromethyl)pyridin-3-yl}oxy]chroman-3-yl}acrylamide] returned a GI50 of no more than 3000 nM.

In turn, `C=CC(=O)NC1CCOc2c1ccc(Oc1ccc(F)c(F)c1)c2OC` (stereo not drawn) [Compound 164, N-{7-(3,4-Difluorophenoxy)-8-methoxychroman-4-yl}acrylamide] displayed a GI50 of no more than 3000 nM.

For the molecule `C=CC(=O)NC1CCOc2c1ccc(Oc1ccc(C(F)(F)F)nc1)c2Cl` (stereo not drawn) [Compound 168, N-(8-Chloro-7-[{6-(trifluoromethyl)pyridin-3-yl}oxy]chroman-4-yl)acrylamide], the GI50 is no more than 3000 nM.

In the case of `C=CC(=O)NC1CCOc2c1ccc(Oc1ccc(C(F)(F)F)nc1)c2Br` (stereo not drawn) [Compound 169, N-(8-Bromo-7-[{6-(trifluoromethyl)pyridin-3-yl}oxy]chroman-4-yl)acrylamide], the GI50 was no more than 3000 nM.

As for `C=CC(=O)NCc1ccc(Oc2ccc(Cl)cc2)c2c1CCCO2` [Compound 176, N-[{8-(4-Chlorophenoxy)chroman-5-yl}methyl]acrylamide], the GI50 was no more than 3000 nM.

Regarding `C=CC(=O)NCc1ccc(Oc2ccc(C(F)(F)F)cc2)c2ncc(C)cc12` [Compound 199, N-([3-Methyl-8-{4-(trifluoromethyl)phenoxy}quinolin-5-yl]methyl)acrylamide], the GI50 is no more than 3000 nM.

In turn, `C=CC(=O)NCc1ccc(Oc2ccc(C(F)(F)F)nc2)c2ncc(C)cc12` [Compound 200, N-{(3-Methyl-8-[{6-(trifluoromethyl)pyridin-3-yl}oxy]quinolin-5-yl)methyl}acrylamide] registered a GI50 of no more than 3000 nM.

For the molecule `C=CC(=O)NCc1ccc(Oc2ccc(C(F)(F)F)cc2)c2nccc(C)c12` [Compound 201, N-([4-Methyl-8-{4-(trifluoromethyl)phenoxy}quinolin-5-yl]methyl)acrylamide], the GI50 was no more than 3000 nM.

`C=CC(=O)NCc1ccc(Sc2ccc(C(F)(F)F)cc2)c2ncccc12` [Compound 202, N-{(8-[{4-(Trifluoromethyl)phenyl}thio]quinolin-5-yl)methyl}acrylamide] registered a GI50 of no more than 3000 nM.

Regarding `C=CC(=O)NCc1ccc(Nc2ccc(C(F)(F)F)cc2)c2ncccc12` [Compound 203, N-{(8-[{4-(Trifluoromethyl)phenyl}amino]quinolin-5-yl)methyl}acrylamide], the GI50 is no more than 3000 nM.

On to `C=CC(=O)NCc1ccc(C(O)c2ccc(C(F)(F)F)cc2)c2ncccc12` (stereo not drawn) [Compound 206, N-{(8-[Hydroxy{4-(trifluoromethyl)phenyl}methyl]quinolin-5-yl)methyl}acrylamide], for which the GI50 was no more than 3000 nM.

For the molecule `C=CC(=O)NCc1ccc(C(=O)c2ccc(C(F)(F)F)cc2)c2ncccc12` [Compound 208, N-([8-{4-(Trifluoromethyl)benzoyl}quinolin-5-yl]methyl)acrylamide], the concentration for 50% growth inhibition (GI50) is no more than 3000 nM.

For `C=CC(=O)NCc1ccc(Cc2ccc(C(F)(F)F)cc2)c2ncccc12` [Compound 211, N-([8-{4-(Trifluoromethyl)benzyl}quinolin-5-yl]methyl)acrylamide], the GI50 was no more than 3000 nM.

As to `C=CC(=O)NCc1ccc(Oc2ccc(C(F)(F)F)cc2)c2nc(C)ccc12` [Compound 212, N-([2-Methyl-8-{4-(trifluoromethyl)phenoxy}quinolin-5-yl]methyl)acrylamide], the 50% growth inhibitory concentration (GI50) was no more than 3000 nM.

`C=CC(=O)NCc1ccc(Oc2ccc(C(F)(F)F)cc2)c2cccnc12` [Compound 216, N-([5-{4-(Trifluoromethyl)phenoxy}quinolin-8-yl]methyl)acrylamide] gave a GI50 of no more than 3000 nM.

As for `C=CC(=O)NCc1ccc(Oc2ccc(C(F)(F)F)nc2)c2cccnc12` [Compound 219, N-{(5-[{6-(Trifluoromethyl)pyridin-3-yl}oxy]quinolin-8-yl)methyl}acrylamide], the GI50 is no more than 3000 nM.

Molecule `C=CC(=O)NCc1cnc(Oc2ccc(C(F)(F)F)cc2)c2ccccc12` [Compound 222, N-([1-{4-(Trifluoromethyl)phenoxy}isoquinolin-4-yl]methyl)acrylamide] displayed a GI50 of no more than 3000 nM.

`C=CC(=O)NCc1ccc(Oc2ccc(C(F)(F)F)cc2)c2cnccc12` [Compound 223, N-([8-{4-(Trifluoromethy)phenoxy}isoquinolin-5-yl]methyl)acrylamide] had a GI50 of no more than 3000 nM.

For the molecule `C=CC(=O)NCc1ncc(Oc2ccc(C(F)(F)F)cc2)c2ccccc12` [Compound 224, N-([4-{4-(Trifluorophenyl)phenoxy}isoquinolin-1-yl]methyl)acrylamide], the GI50 is no more than 3000 nM.

`C=CC(=O)Nc1cnc(Oc2ccc(Cl)cc2)c2ncccc12` [Compound 226, N-{8-(4-chlorophenoxy)-1,7-naphthyridin-5-yl}acrylamide]: the GI50 was no more than 3000 nM.

In turn, `C=CC(=O)NCc1cnc(Oc2ccc(Cl)cc2)c2ncccc12` [Compound 227, N-[{8-(4-Chlorophenoxy)-1,7-naphthyridin-5-yl}methyl]acrylamide] gave a GI50 of no more than 3000 nM.

`C=CC(=O)NC1COc2c(cccc2Oc2ccc(C(F)(F)F)nc2)C1` (stereo not drawn) [Compound 229, N-(8-[{6-(Trifluoromethyl)pyridin-3-yl}oxy]chroman-3-yl)acrylamide] had a GI50 of no more than 3000 nM.

In another experiment the test system is NCI-H226 cells. In words: Cell growth inhibitory effect on human mesothelioma cell line (cell counting kit 8, 6 days). Type of experiment: cell-based. The conditions noted are these: NCI-H226, 144 h.
Excerpt: as §1
`C=CC(=O)N[C@@H]1CC[C@H](Oc2ccccc2)c2ncccc21` (relative stereo) [Compound 67, cis-N-(8-Phenoxy-5,6,7,8-tetrahydroquinolin-5-yl)acrylamide]: the GI50 was in the range of 100 to 1000 nM.

`C=CC(=O)N[C@@H]1CC[C@H](Oc2ccc(Cl)c(Cl)c2)c2nc(Cl)ccc21` (relative stereo) [Compound 178, cis-N-{2-Chloro-8-(3,4-dichlorophenoxy)-5,6,7,8-tetrahydroquinolin-5-yl}acrylamide] displayed a GI50 of less than 100 nM.

Take `C=CC(=O)N[C@@H]1CC[C@H](Oc2cnc(Cl)c(Cl)c2)c2nc(Cl)ccc21` (relative stereo) [Compound 181, cis-N-[2-Chloro-8-{(5,6-dichloropyridin-3-yl)oxy}-5,6,7,8-tetrahydroquinolin-5-yl]acrylamide]: the GI50 was in the range of 100 to 1000 nM.

The molecule `C=CC(=O)N[C@@H]1CC[C@H](Oc2ccc(C(F)(F)F)cc2)c2nc(CC)ccc21` (relative stereo) [Compound 186, cis-N-[2-ethyl-8-{4-(trifluoromethyl)phenoxy}-5,6,7,8-tetrahydroquinolin-5-yl]acrylamide] displayed a GI50 of 100 to 1000 nM.

On to `C=CC(=O)NC1CC[C@@H](Oc2ccc(Cl)cc2)c2nc(OC)ccc21` (stereo in doubt) [Compound 81, trans-N-{8-(4-Chlorophenoxy)-2-methoxy-5,6,7,8-tetrahydroquinolin-5-yl}acrylamide], for which the GI50 is 100 to 1000 nM.

In the case of `C=CC(=O)Nc1cncc(Oc2ccc(OC(C)C)nc2)c1` [Compound 110, N-[5-{(6-Isopropoxypyridin-3-yl)oxy}pyridin-3-yl]acrylamide], the GI50 lay within 100 to 1000 nM.

`O=C(/C=C/C(F)(F)F)NCc1ccc(Oc2ccc(Cl)cc2)c2ncccc12` [Compound 135, (E)-N-[{8-(4-Chlorophenoxy)quinolin-5-yl}methyl]-4,4,4-trifluoro-2-butenamide] displayed a GI50 of 100 to 1000 nM.

`C=CC(=O)NCc1ccc(Oc2cnc(C(F)(F)F)nc2)c2ncccc12` [Compound 196, N-{(8-[{2-(Trifluoromethyl)pyrimidin-5-yl}oxy]quinolin-5-yl)methyl}acrylamide] displayed a GI50 of 100 to 1000 nM.

The molecule `C=CC(=O)NCc1nc2c(Oc3ccc(C(F)(F)F)cc3)cccc2o1` [Compound 254, N-([4-{4-(Trifluoromethyl)phenoxy}benzo[d]oxazol-2-yl]methyl)acrylamide] returned a GI50 of 100 to 1000 nM.

Regarding `C=CC(=O)NCc1nc2cc(Oc3ccc(C(F)(F)F)cc3)ccc2o1` [Compound 255, N-([5-{4-(Trifluoromethyl)phenoxy}benzo[d]oxazol-2-yl]methyl)acrylamide], the GI50 lay within 100 to 1000 nM.

As to `C=CC(=O)NC1CCCOc2cc(Oc3ccc(C(F)(F)F)cc3)ccc21` (stereo not drawn) [Compound 261, N-[8-{4-(Trifluoromethyl)phenoxy}-2,3,4,5-tetrahydrobenzo[b]oxepin-5-yl]acrylamide], the GI50 lay in the range of 100 to 1000 nM.

These data come from US11447471B2, “α,β-unsaturated amide compound” (KYOWA KIRIN CO., LTD., priority 2017, dated 2022).
